How the values were obtained:
hDP = target: T1, hDP (Homo sapiens, UniProt Q13258); experiment: Other receptors functional assay, hDP; format: cell-based
T1 sequence (Q13258 1-359): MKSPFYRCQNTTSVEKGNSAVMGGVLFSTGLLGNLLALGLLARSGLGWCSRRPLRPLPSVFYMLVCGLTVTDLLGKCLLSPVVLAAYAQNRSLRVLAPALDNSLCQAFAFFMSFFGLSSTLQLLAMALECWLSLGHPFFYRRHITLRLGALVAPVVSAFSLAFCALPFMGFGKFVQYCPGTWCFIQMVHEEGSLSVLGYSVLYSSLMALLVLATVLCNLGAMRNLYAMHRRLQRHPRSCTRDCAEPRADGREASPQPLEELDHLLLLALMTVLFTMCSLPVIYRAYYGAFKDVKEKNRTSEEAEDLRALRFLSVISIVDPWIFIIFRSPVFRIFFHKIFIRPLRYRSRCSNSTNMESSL
Text: (§1) U.S. patent application Ser. No. 11/553,143, filed on Oct. 26, 2006, incorporated by reference herein, describes the methods used to obtain the in vitro data in the table below.

EP4 [1] = target: T2, EP4 (Homo sapiens, UniProt P35408); experiment: EP4 binding (KI)
Text: as §1

EP2 [2] = target: T3, EP2 (Homo sapiens, UniProt P43116); experiment: EP2 flipr functional assay; format: cell-based
Text: as §1

EP2 [3] = target: T3, EP2; experiment: EP2 binding (KI)
Text: as §1

EP2 [4] = target: T3, EP2; experiment: EP2 cAMP assay; format: cell-based
Text: as §1

EP4 [5] = target: T2, EP4; experiment: EP4 flipr functional assay; format: cell-based
Text: as §1

T3 sequence (P43116 whole entry): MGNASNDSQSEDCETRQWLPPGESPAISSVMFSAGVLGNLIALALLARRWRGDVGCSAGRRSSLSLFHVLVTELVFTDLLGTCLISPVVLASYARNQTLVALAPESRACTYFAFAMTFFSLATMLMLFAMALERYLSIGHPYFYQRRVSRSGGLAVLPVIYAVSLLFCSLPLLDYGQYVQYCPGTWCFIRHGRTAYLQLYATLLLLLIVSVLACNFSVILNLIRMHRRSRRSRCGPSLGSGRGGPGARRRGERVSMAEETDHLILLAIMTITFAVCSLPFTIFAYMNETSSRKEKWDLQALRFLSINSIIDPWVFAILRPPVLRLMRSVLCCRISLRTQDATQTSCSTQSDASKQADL
T2 sequence (P35408 whole entry): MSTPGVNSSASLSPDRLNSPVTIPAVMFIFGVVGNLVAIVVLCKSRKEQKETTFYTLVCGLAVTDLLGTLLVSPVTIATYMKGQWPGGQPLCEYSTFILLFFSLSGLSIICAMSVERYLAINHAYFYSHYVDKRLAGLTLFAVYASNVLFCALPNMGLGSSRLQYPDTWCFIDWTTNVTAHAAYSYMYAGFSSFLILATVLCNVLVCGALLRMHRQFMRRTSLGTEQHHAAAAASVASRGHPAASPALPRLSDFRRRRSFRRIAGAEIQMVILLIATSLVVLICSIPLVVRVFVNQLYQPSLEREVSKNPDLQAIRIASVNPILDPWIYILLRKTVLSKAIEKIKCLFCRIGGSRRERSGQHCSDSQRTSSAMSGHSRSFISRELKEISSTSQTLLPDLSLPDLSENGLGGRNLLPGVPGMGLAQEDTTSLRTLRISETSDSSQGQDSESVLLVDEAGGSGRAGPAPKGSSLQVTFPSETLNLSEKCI

## O=C(O)c1ccc(CCC[C@H]2CCC(=O)N2CCc2cc(Cl)cc(Cl)c2)s1 [(S)-5-(3-(1-(3,5-dichlorophenethyl)-5-oxopyrrolidin-2-yl)propyl)thiophene-2-carboxylic acid]
hDP
  EC50: 6.22 µM
EP4 [1]
  Ki: > 10 µM
EP2 [2]
  EC50: 8.41 µM
EP2 [3]
  Ki: 0.024 µM
EP2 [4]
  EC50: 0.0022 µM

## O=C(O)c1ccc(COC[C@H]2CCC(=O)N2CCc2cc(Cl)cc(Cl)c2)s1 [(R)-5-(((1-(3,5-dichlorophenethyl)-5-oxopyrrolidin-2-yl)methoxy)methyl)thiophene-2-carboxylic acid]
EP4 [1]
  Ki: 7.99 µM
EP2 [2]
  EC50: > 10 µM
EP2 [3]
  Ki: 0.159 µM
EP4 [5]
  EC50: > 10 µM
EP2 [4]
  EC50: 0.004 µM
